In patent publication US11518764B2, “Substituted heteroaryls as inhibitors of the BCL6 BTB domain protein-protein interaction” (Ontario Institute for Cancer Research (OICR), priority 2018, dated 2022):
Where two headings read alike, the source gives them in different places.

Experiments:
BCL6 BTB domain = BCL6 BTB domain (Homo sapiens (Human), UniProt P41182); assay: Surface plasmon resonance (SPR) assay; type: binding; conditions: BCL6 BTB domain captured on SA chip, single cycle kinetics
[1] = test system: BCL6 reporter construct (3xBCL6-TK-Luc) in SuDHL4 cells; assay: Cell-based luciferase assay
Experimental: Cell-Based Luciferase Assay
A BCL6 reporter construct containing three copies of the consensus BCL6 binding site, the TK promoter, and the firefly luciferase gene was stably expressed in SuDHL4 cells after lentivirus infection and selection with Blasticidin. SuDHL4-3×BCL6-TK-Luc cells were seeded into a Viewplate 384-well assay dish at 15,000 cells/well in 25 ul medium (Alpha-MEM high glucose containing 10% FBS, 25 mM HEPES, […] GlutaMAX, 100 ug/ml Normocin, and […] Gentamycin, Invitrogen). A HP D300 digital dispenser was used to dose cells with DMSO or test compounds across a 10-point range of concentrations (high dose of 10 uM), and cultures were grown in a humidified 5% CO2 incubator at 37° C. After two days, plates were removed from the incubator and equilibrated to room temperature. An equal volume of neolite reporter gene assay reagent was added to each well, and samples were processed according to manufacturer's instructions (Perkin Elmer). Luminescent signal was measured using an Envision plate reader equipped with a US-Luminescence detector.

Karpas422 cells = assay: Tumor cell growth inhibition assay; type: cell-based
Experimental: Tumor Cell Growth inhibition Assay
Karpas422 cells were seeded into a 96-well plate at 2,000 cells/well in 150 ul medium (Alpha-MEM containing 10% FBS, […] Normocin, and […] Gentamycin, Invitrogen). A HP D300 digital dispenser was used to dose cells with DMSO or test compounds across a 10-point range of concentrations (high dose of 5 uM), and cultures were grown in a humidified 5% CO2 incubator at 37° C. After six days, plates were removed from incubator and equilibrated to room temperature. An equal volume of ATPlite assay reagent was added to each well, and samples were processed according to manufacturer's instructions (Perkin Elmer). Luminescent signal was measured using an Envision plate reader equipped with a US-Luminescence detector.

[2] = Homo sapiens, SU-DHL-4, 48 h, read-out: Luciferase-Assay EC50, uM), SuDHL4-3xBCL6-TK-Luc cells, two days, high dose 10 uM
[3] = Homo sapiens, KARPAS-422, 144 h, read-out: Tumor Growth Inhibition in Karpas-422 (IC50, uM), Karpas422 cells, six days, ATPlite

| SMILES | Kd (BCL6 BTB domain) [nM] | EC50 [1, 2] [µM] | IC50 (Karpas422 cells; [3]) [µM] | EC50 ([1]; SuDHL4-3xBCL6-TK-Luc cells, two days, high dose 10 uM, read-out: Luciferase-Assay EC50) [µM] | IC50 (Karpas422 cells; Karpas422 cells, six days, ATPlite, read-out: Tumor Growth Inhibition in Karpas-422 (IC50)) [µM] |
| --- | --- | --- | --- | --- | --- |
| Cn1cnc2c(c(-c3cc(Cl)c(O)c(C(N)=O)c3)cn2CC(=O)Nc2cc(N3C[C@H]4CCO[C@H]4C3)ncc2Cl)c1=O [Compound I-74] | 2 | 2.3 | 0.123 |  |  |
| Cn1cnc2c(c(-c3cc(Cl)c(O)c(C(N)=O)c3)cn2CC(=O)Nc2cc(N3CCN4CCOCC4C3)ncc2Cl)c1=O (stereo not drawn) [Compound I-75] | 8 | 0.132 | 0.099 |  |  |
| Cn1cnc2c(c(-c3cc(Cl)c(O)c(C(N)=O)c3)cn2CC(=O)Nc2cc(N3CCC4(CCOC4)C3)ncc2Cl)c1=O (stereo not drawn) [Compound I-76] | 12 | 0.155 | 0.112 |  |  |
| Cn1cnc2c(c(-c3cc(Cl)c(O)c(C(N)=O)c3)cn2CC(=O)Nc2cc(N3CCC4(CCOCC4)CC3)ncc2Cl)c1=O [Compound I-77] | 27 | 0.279 | 0.115 |  |  |
| C[C@H]1COCCN1c1cc(NC(=O)Cn2cc(-c3cc(Cl)c(O)c(C(N)=O)c3)c3c(=O)n(CC#Cc4cnn(C)c4)cnc32)c(Cl)cn1 [Compound I-82] | 6 | 0.133 | 0.034 |  |  |
| CC1OCCN(c2cc(NC(=O)Cn3cc(-c4cc(Cl)c(O)c(C(N)=O)c4)c4c(=O)n(C)cnc43)c(Cl)cn2)C1C (stereo not drawn) [Compound I-83] | 16 | 0.148 | 0.119 |  |  |
| Cc1nc2c(c(-c3cc(Cl)c(O)c(C(N)=O)c3)cn2CC(=O)Nc2cc(N3C[C@@H](C)O[C@@H](C)C3)ncc2Cl)c(=O)[nH]1 [Compound I-85] | 11 | 0.076 | 0.064 |  |  |
| Cc1nc2c(s1)CN(c1cc(NC(=O)Cn3cc(-c4cc(Cl)c(O)c(C(N)=O)c4)c4c(=O)n(C)cnc43)c(Cl)cn1)C2 [Compound I-108] | 30 | 0.203 | 0.408 |  |  |
| Cc1c(O)c(C(N)=O)cc(-c2cn(CC(=O)Nc3cc(N4CCOCC4)ncc3Cl)c3ncn(C)c(=O)c23)c1F [Compound I-118] | 2000 | > 10 | 2.45 |  |  |
| Cc1c(O)c(C(N)=O)cc(-c2cn(CC(=O)Nc3cc(N4C[C@@H](C)O[C@@H](C)C4)ncc3Cl)c3ncn(C)c(=O)c23)c1F [Compound I-119] | 4000 | > 10 | > 10 |  |  |
| COc1cc(-c2cn(CC(=O)Nc3cc(N4CCOC[C@@H]4C)ncc3Cl)c3nc(C)n(C)c(=O)c23)cc(C(N)=O)c1O [Compound I-122] | 6 | 0.119 | 0.078 |  |  |
| COc1cc(-c2cn(CC(=O)Nc3cc(N4CCOCC4)ncc3Cl)c3nc(C)n(C)c(=O)c23)cc(C(N)=O)c1O [Compound I-123] | 7 | 0.095 | 0.216 |  |  |
| Cn1c(NCC2CC2)nc2c(c(-c3cc(Cl)c(O)c(C(N)=O)c3)cn2CC(=O)Nc2cc(N3CCOCC3)ncc2Cl)c1=O [Compound I-124] | 86 | 0.371 | 0.434 |  |  |
| Cn1cnc2c(c(-c3cc(Cl)c(O)c(C(N)=O)c3)cn2CC(=O)Nc2cc(N3C4CCC3CC4)ncc2Cl)c1=O [Compound I-125] | 30 | 3.76 | 0.407 |  |  |
| Cn1cnc2c(c(-c3cc(Cl)c(O)c(C(N)=O)c3)cn2CC(=O)Nc2cc(N3CC4CCC3C4)ncc2Cl)c1=O (stereo not drawn) [Compound I-126] | 39 | 2.85 | 0.268 |  |  |
| Cn1c(CCc2ccc(F)cc2)nc2c(c(-c3cc(Cl)c(O)c(C(N)=O)c3)cn2CC(=O)Nc2cc(N3CCOCC3)ncc2Cl)c1=O [Compound I-127] | 201 | 0.756 | 0.276 |  |  |

| SMILES | Kd (BCL6 BTB domain) [nM] | EC50 [1, 2] [µM] | IC50 (Karpas422 cells; [3]) [µM] | EC50 ([1]; SuDHL4-3xBCL6-TK-Luc cells, two days, high dose 10 uM, read-out: Luciferase-Assay EC50) [µM] | IC50 (Karpas422 cells; Karpas422 cells, six days, ATPlite, read-out: Tumor Growth Inhibition in Karpas-422 (IC50)) [µM] |
| --- | --- | --- | --- | --- | --- |
| Cc1nc2c(c(-c3cc(Cl)c(O)c(C(N)=O)c3)cn2CC(=O)Nc2cc(N3CCN(C)C[C@@H]3C)ncc2Cl)c(=O)[nH]1 [Compound I-128] | 12 | 0.173 | 0.074 |  |  |
| CN(C)c1cc(NC(=O)Cn2cc(-c3cc(Cl)c(O)c(C(N)=O)c3)c3c(=O)n(C)c(NCc4ccc(F)cc4)nc32)c(Cl)cn1 [Compound I-129] | 44 | 2.62 | 0.866 |  |  |
| CN(C)c1cc(NC(=O)Cn2cc(-c3cc(Cl)c(O)c(C(N)=O)c3)c3c(=O)n(C)c(NCC4CC4)nc32)c(Cl)cn1 [Compound I-130] | 80 | 1.03 | 0.775 |  |  |
| Cn1cnc2c(c(-c3cc(C(N)=O)c(O)cn3)cn2CC(=O)Nc2cc(N3CCOCC3)ncc2Cl)c1=O [Compound I-131, 2-(7-(2-((5-chloro-2-morpholinopyridin-4-yl)amino)-2-oxoethyl)-3-methyl-4-oxo-4,7-dihydro-3H-pyrrolo[2,3-d]pyrimidin-5-yl)-5-hydroxyisonicotinamide] | 8000 |  |  | > 10 | > 10 |
| CN1CCOC2(CCN(c3cc(NC(=O)Cn4cc(-c5cc(Cl)c(O)c(C(N)=O)c5)c5c(=O)n(C)cnc54)c(Cl)cn3)C2)C1 (stereo not drawn) [Compound I-132] | 10 | 0.192 | 0.067 |  |  |
| CN1CCC2(C1)CN(c1cc(NC(=O)Cn3cc(-c4cc(Cl)c(O)c(C(N)=O)c4)c4c(=O)n(C)cnc43)c(Cl)cn1)CCO2 (stereo not drawn) [Compound I-133] | 30 | 0.137 | 0.199 |  |  |
| Cn1c(NCCC(F)(F)F)nc2c(c(-c3cc(Cl)c(O)c(C(N)=O)c3)cn2CC(=O)Nc2cc(N3CCOCC3)ncc2Cl)c1=O [Compound I-134] | 97 | 0.477 | 0.57 |  |  |
| C[C@@H]1CCCN1c1cc(NC(=O)Cn2cc(-c3cc(Cl)c(O)c(C(N)=O)c3)c3c(=O)n(C)cnc32)c(Cl)cn1 [Compound I-135] | 69 | 3.01 | 1.43 |  |  |
| C[C@H]1CCCN1c1cc(NC(=O)Cn2cc(-c3cc(Cl)c(O)c(C(N)=O)c3)c3c(=O)n(C)cnc32)c(Cl)cn1 [Compound I-136] | 55 | 0.578 | 0.96 |  |  |
| C[C@H]1COCCN1c1cc(NC(=O)Cn2cc(-c3cc(F)c(O)c(C(N)=O)c3)c3c(=O)n(C)ccc32)c(Cl)cn1 [Compound I-137] | 66 | 1.34 | 1.74 |  |  |
| C[C@H]1COCCN1c1cc(NC(=O)Cn2cc(-c3cc(Cl)c(O)c(C(N)=O)c3)c3c(=O)n(C)ccc32)c(Cl)cn1 [Compound I-138] | 178 | 1.74 | 1.72 |  |  |
| Cc1cc(-c2cn(CC(=O)Nc3cc(N4CCOC[C@@H]4C)ncc3Cl)c3ccn(C)c(=O)c23)cc(C(N)=O)c1O [Compound I-139] | 3270 | 8.35 | > 10 |  |  |
| Cn1ccc2c(c(-c3cc(F)c(O)c(C(N)=O)c3)cn2CC(=O)Nc2cc(N3CCOCC3)ncc2Cl)c1=O [Compound I-140] | 317 | 1.33 | 1.28 |  |  |
| Cn1ccc2c(c(-c3cc(Cl)c(O)c(C(N)=O)c3)cn2CC(=O)Nc2cc(N3CCOCC3)ncc2Cl)c1=O [Compound I-141] | 265 | 1.83 | 1.02 |  |  |
| Cc1cc(-c2cn(CC(=O)Nc3cc(N4CCOCC4)ncc3Cl)c3ccn(C)c(=O)c23)cc(C(N)=O)c1O [Compound I-142] | 2200 | 4.02 | > 10 |  |  |
| C[C@H]1COCCN1c1cc(NC(=O)Cn2cc(-c3cc(Cl)c(O)c(C(N)=O)c3)c3c(=O)[nH]cnc32)c(Cl)cn1 [Compound I-145] | 6.09 | 0.303 | 0.551 |  |  |
